Where a name gives a salt, the structure may show the parent alone.
Legend:
[1] = test system: Staphylococcus aureus (ATCC25923); assay: MIC, broth microdilution (CLSI), Staphylococcus aureus ATCC25923; settings: Staphylococcus aureus, ATCC25923, read-out: S. aureus ATCC 25923 MIC
[2] = test system: E. coli RNase P RNA, M1 RNA; assay: Inhibition of bacterial RNase P activity, IC50 determination (cleavage of pATSerUG by M1 RNA); type: biochemical; settings: NI: No inhibition
[3] = test system: Escherichia coli (ATCC25922); assay: MIC, broth microdilution (CLSI), Escherichia coli; settings: Escherichia coli, ATCC25922, read-out: E. coli ATCC 25922 MIC, Table XIII
Experimental: Initial minimal inhibitory concentration (MIC) tests were made on two bacterial strains: • Escherichia coli (ATCC25922) • Staphylococcus aureus (ATCC25923).
MIC values were determined using the standard broth microdilution procedure based on the guidelines by the Clinical and Laboratory Standards Institute (CLSI). Briefly, the compounds were dissolved in DMSO to 10 mM. They were diluted in cation-adjusted Mueller-Hinton broth (CAMHB) to four times the highest concentration tested. A serial two-fold dilution in CAMHB was done in microdilution plates. The inoculum of bacterial strain to be tested was prepared by making a suspension of colonies from an 18 to 24 hours old plate in CAMHB. The inoculum was diluted so that, after inoculation, each well contained approximately 5×10^5 CFU/mL. To a volume of 50 μl compound in CA 3 an equal volume of inoculum was added. The tray was sealed in a plastic bag and incubated at 35° C. for 16 to 20 hours. To aid in the detection of growth the dye resazurin was added to a final concentration 0.001% and incubated at room temperature for 1 h. Reduction of resazurin, and therefore bacterial growth, was seen as a change from blue to pink.

Cc1cccc(C(CC(=O)NC2CCNCC2)c2cn(CC3CCOCC3)c3ccc(Br)cc23)c1.Cl (stereo not drawn) [Compound 285, 3-(5-bromo-1-((tetrahydro-2H-pyran-4-yl)methyl)-1H-indol-3-yl)-N-(piperidin-4-yl)-3-(m-tolyl) propanamide hydrochloride salt]
MIC [1]: 37 µg/mL
IC50 [2]: 74 µM
MIC [3]: 147 µg/mL

Cl.NC1CCC(C(=O)N2CCC(c3cn(CC4CCCCC4)c4ccccc34)CC2)CC1 (stereo not drawn) [Compound 200, (4-aminocyclohexyl) (4-(1-(cyclohexylmethyl)-1H-indol-3-yl)piperidin-1-yl)methanone hydrochloride salt]
MIC [1]: 15 µg/mL
IC50 [2]: 5.9 µM
MIC [3]: 59 µg/mL

Cc1cccc(C(CC(=O)NC2CCC(N)CC2)c2cn(CC34CC5CC(CC(C5)C3)C4)c3ccccc23)c1.Cl [Compound 223, 3-(1-(((1S,3S)-adamantan-1-yl)methyl)-1H-indol-3-yl)-N-((1s,4s)-4-aminocyclohexyl)-3-(m-tolyl)propanamide hydrochloride salt]
MIC [1]: 2 µg/mL
IC50 [2]: 8 µM
MIC [3]: > 512 µg/mL

N[C@H]1CC[C@@H](NC(=O)c2coc(CN(CCc3c[nH]c4ccccc34)Cc3ccc(F)cc3)n2)CC1 [Compound 61, 2-(((2-(1H-indol-3-yl)ethyl)(4-fluorobenzyl)amino)methyl)-N-((1s,4s)-4-aminocyclohexyl) oxazole-4-carboxamide hydrochloride salt]
MIC [1]: 63 µg/mL
IC50 [2]: 182 µM
MIC [3]: 251 µg/mL

Cc1cccc(C(CC(=O)NC2CCC(N)CC2)c2cn(CC3CCCCCC3)c3ccccc23)c1.Cl [Compound 238, N-((1S,4S)-4-aminocyclohexyl)-3-(1-(cycloheptylmethyl)-1H-indol-3-yl)-3-(m-tolyl)propanamide hydrochloride salt]
MIC [1]: 4 µg/mL
IC50 [2]: 9.2 µM
MIC [3]: > 512 µg/mL

Cl.c1ccc2c(CCNCC3CCCC3)c[nH]c2c1 [Compound 20, N-(cyclopentylmethyl)-2-(1H-indol-3-yl)ethan-1-amine hydrochloride salt]
MIC [1]: > 512 µg/mL
IC50 [2]: 4140 µM
MIC [3]: > 512 µg/mL

Cc1cccc(C(CC(=O)N[C@H]2CC[C@H](N)CC2)c2cn(CC3CCCCC3)c3ccc(Br)cc23)c1.Cl (stereo partly drawn) [Compound 126, N-((1R,4R)-4-aminocyclohexyl)-3-(5-bromo-1-(cyclohexylmethyl)-1H-indol-3-yl)-3-(m-tolyl)propanamide hydrochloride salt]
MIC [1]: 4 µg/mL
IC50 [2]: 5.8 µM
MIC [3]: > 512 µg/mL

Cc1cccc(C(CCNC2CCNCC2)c2cn(CC3CCOCC3)c3ccccc23)c1 (stereo not drawn) [Compound 292, N-(3-(1-((tetrahydro-2H-pyran-4-yl)methyl)-1H-indol-3-yl)-3-(m-tolyl)propyl)piperidin-4-amine hydrochloride salt]
MIC [1]: 33 µg/mL
IC50 [2]: 130 µM
MIC [3]: 66 µg/mL

COc1cccc(C(CC(=O)NCCC2CCNCC2)c2cn(Cc3ccccc3)c3ccccc23)c1.Cl (stereo not drawn) [Compound 68, 3-(1-benzyl-1H-indol-3-yl)-3-(3-methoxyphenyl)-N-(2-(piperidin-4-yl)ethyl)propanamide hydrochloride salt]
MIC [1]: 68 µg/mL
IC50 [2]: 201 µM
MIC [3]: > 512 µg/mL

NC1CCC(NC(=O)Cc2cn(CC3CCCCC3)c3ccc(-c4ccncc4)cc23)CC1 [Compound 255, N-((1S,4S)-4-aminocyclohexyl)-2-(1-(cyclohexylmethyl)-5-(pyridin-4-yl)-1H-indol-3-yl)acetamide hydrochloride salt]
MIC [1]: 8 µg/mL
IC50 [2]: 33 µM
MIC [3]: 66 µg/mL

Cc1cccc(C(CC(=O)N[C@H]2CC[C@H](N)CC2)c2cn(CC3CCCCC3)c3ccc(-c4ccccc4)cc23)c1.Cl (stereo partly drawn) [Compound 153, N-((1R,4R)-4-aminocyclohexyl)-3-(1-(cyclohexylmethyl)-5-phenyl-1H-indol-3-yl)-3-(m-tolyl)propanamide hydrochloride salt]
MIC [1]: 64 µg/mL
IC50 [2]: 41 µM
MIC [3]: > 512 µg/mL

— patent publication US20210246115A1 (Bioimics AB, priority 2017, published 2021)
